PubChem BioAssay (NCI)
“And” between values parts separate entries of the source, which are not always exact repeats. Equal values may be shown once.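 48-hour exposure; five concentrations; linearly interpolated endpoints. At the GI50, growth is halved. TGI marks complete inhibition of growth.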

Assays:
Experiment in all cases: NCI tumour cell line growth inhibition, 48 h
A549 NSCLC = test system: A549 NSCLC
HL-60(TB) leukemia = test system: HL-60(TB) leukemia
KM12 colon = test system: KM12 colon
MOLT-4 leukemia = test system: MOLT-4 leukemia
OVCAR-5 ovarian = test system: OVCAR-5 ovarian
SF-295 CNS = test system: SF-295 CNS
SK-MEL-5 melanoma = test system: SK-MEL-5 melanoma
MCF7 breast = test system: MCF7 breast
MDA-MB-435 = test system: MDA-MB-435
SNB-19 CNS = test system: SNB-19 CNS

| Compound | TGI (A549 NSCLC) | TGI (HL-60(TB) leukemia) | TGI (KM12 colon) | TGI (MOLT-4 leukemia) | TGI (OVCAR-5 ovarian) | TGI (SF-295 CNS) | TGI (SK-MEL-5 melanoma) | GI50 (A549 NSCLC) | GI50 (HL-60(TB) leukemia) | TGI (MCF7 breast) | GI50 (MDA-MB-435) | TGI (MDA-MB-435) | GI50 (SK-MEL-5 melanoma) | TGI (SNB-19 CNS) | GI50 (KM12 colon) | GI50 (MCF7 breast) | GI50 (OVCAR-5 ovarian) | GI50 (SF-295 CNS) | GI50 (SNB-19 CNS) | GI50 (MOLT-4 leukemia) |
| --- | --- | --- | --- | --- | --- | --- | --- | --- | --- | --- | --- | --- | --- | --- | --- | --- | --- | --- | --- | --- |
| O=C(OCc1nc2ccc(Br)cc2c(=O)n1-c1ccccc1)c1ccccc1O | > 100 µM | > 100 µM | > 100 µM | > 100 µM | > 100 µM | > 100 µM | 68.7 µM | – | – | – | – | – | – | – | – | – | – | – | – | – |
| C=C(C)[C@]12CC(C)C34OC(/C=C\C=C\CCCCCCCCC)(O[C@@H]1[C@@H]3[C@@H]1O[C@]1(CO)[C@@H](O)[C@]1(O)C(=O)C(C)=C[C@@H]41)O2 (stereo partly drawn) | 20.9 µM | > 20.5 µM | 21.7 µM | – | 41.2 µM | – | 24.3 µM | < 0.0001 µM | < 0.0001 µM | 23.4 µM | < 0.0001 µM | 21.5 µM | 0.000417 µM | 30.5 µM | – | – | – | – | – | – |
| CCCCCCN1C(=O)CN=C1Nc1ccc2cc3ccc(NC4=NCC(=O)N4CCCCCC)cc3nc2c1 | 3.96 µM | 4.16 µM | 4.1 µM | – | 4.12 µM | 3.82 µM | 15.8 µM | 2.03 µM | 1.96 µM | 3.95 µM | 1.79 µM | 3.77 µM | 3.9 µM | 4.67 µM | 1.47 µM | 1.66 µM | 1.81 µM | 1.82 µM | 2.07 µM | – |
| O=C1c2cccc3cccc(c23)C(=O)N1CCCN1CCN(CCCN2C(=O)c3cccc4cccc(c34)C2=O)CC1 | > 100 µM | > 100 µM | > 100 µM | > 100 µM | > 100 µM | > 100 µM | > 100 µM | – | – | – | – | – | – | > 100 µM | – | – | – | – | – | – |
| O=C1/C(=C/c2ccccc2)CN(C(=O)OCC(Cl)(Cl)Cl)C/C1=C\c1ccccc1 | 20.5 µM | 3.38 µM | 3.74 µM | 10.3 µM | 16.8 µM | 3.92 µM | 2.95 µM | – | – | – | – | – | – | 11.9 µM | – | – | – | – | – | – |
| Cc1cccc(N2C(=O)/C(=C/c3ccc(N(CCC#N)CCC#N)cc3C)N=C2c2cc([N+](=O)[O-])ccc2Cl)c1 | > 100 µM | > 100 µM | > 100 µM | > 100 µM | > 100 µM | > 100 µM | > 100 µM | – | – | – | – | – | – | > 100 µM | – | – | – | – | – | – |
| Cc1cccc(CC(C)(C)C)c1NC(=O)C(=O)C(C(=O)c1ccc2ccccc2c1)C1OC(=O)c2ccccc21 (stereo not drawn) | 40.9 µM | – | 30.3 µM | – | 34.7 µM | 21.6 µM | 26.7 µM | – | – | – | – | – | – | 46.9 µM | – | – | – | – | – | – |
| CCC1NCC(=O)c2c1[nH]c1ccccc21 (stereo not drawn) | > 100 µM | > 100 µM | > 100 µM | > 100 µM | > 100 µM | > 100 µM | > 100 µM | – | – | – | – | – | – | > 100 µM | – | – | – | – | – | – |
| OCCCCC#Cc1ccccc1C#Cc1cnccn1 | > 100 µM | – | > 100 µM | > 100 µM | > 100 µM | 91.6 µM | > 100 µM | 38.3 µM | – | > 100 µM | 33.8 µM | > 100 µM | 38.2 µM | > 100 µM | 36.2 µM | 44.6 µM | 47.7 µM | 28.1 µM | 73.4 µM | 29.8 µM |
| C#Cc1ccc(-n2c(/C=C/c3cc(OC)c(OC)c(OC)c3)nc3ncccc3c2=O)cc1 | > 100 µM | 25.6 µM | 12.8 µM | – | > 100 µM | – | 4.4 µM | 5.65 µM | 3.84 µM | > 100 µM | 1.98 µM | 5.35 µM | 1.78 µM | > 100 µM | 3.32 µM | 3.17 µM | > 100 µM | – | 16.2 µM | – |
| O=c1[nH]c(-c2ccccn2)nc2sc3c(c12)CCCCCC3 | > 100 µM | > 100 µM | > 100 µM | > 100 µM | > 100 µM | – | > 100 µM | 2.57 µM | 3.39 µM | > 100 µM | > 100 µM | > 100 µM | 2.92 µM | – | 4.1 µM | 2.47 µM | 90.9 µM | – | – | 2.41 µM |
| Cc1c(-c2coc(-c3ccc(Cl)cc3)n2)c(=O)n(-c2ccccc2)n1C | > 100 µM | > 100 µM | > 100 µM | > 100 µM | > 100 µM | > 100 µM | > 100 µM | – | – | – | – | – | – | – | – | – | – | – | – | – |
| Cn1cc(-c2nn3cc(-c4cccs4)nc3s2)c2cc(F)ccc21 | 95.6 µM | 15.5 µM | > 100 µM | – | 84.4 µM | 9.39 µM | 12.9 µM | 2.85 µM | 1.34 µM | 30 µM | 0.293 µM | 1.13 µM | 1.8 µM | > 100 µM | 1.04 µM | 0.836 µM | 8.24 µM | 2.24 µM | 3.44 µM | – |
| CCCCCCCCC(=O)NCCCNCCCNC(=O)CCCCCCCC | 29 µM | 3.77 µM | 3.48 µM | 10.4 µM | 28.5 µM | 14.2 µM | 14.1 µM | – | – | – | – | – | – | 35.9 µM | – | – | – | – | – | – |
| Cc1ns/c(=N\C(=S)N(C)C)n1C | > 100 µM | > 100 µM | > 100 µM | > 100 µM | > 100 µM | > 100 µM | > 100 µM | – | – | – | – | – | – | > 100 µM | – | – | – | – | – | – |
| C=C(C)[C@@H]1CCC[C@]2(C(=O)O)CC[C@]3(C)[C@@H](CC[C@@H]4[C@@]5(C)C/C(=C/c6ccncc6)C(=O)C(C)(C)[C@@H]5CC[C@]43C)[C@@H]12 | 5.26 µM | – | 3.87 µM | > 100 µM | 11.9 µM | 6.63 µM | 4.51 µM | 1.72 µM | – | 28.5 µM | 2.6 µM | 6.88 µM | 1.96 µM | 17.1 µM | 1.8 µM | 2.77 µM | 2.52 µM | 2.04 µM | 3.69 µM | 2.07 µM |
| COc1cc2c(c(OC)c1OC)-c1ccc(SC)c(=O)cc1[C@@H](NC(=O)c1ccc(C#N)cc1)CC2 | > 100 µM | – | – | > 53.8 µM | – | < 0.01 µM | < 0.01 µM | – | – | – | – | – | – | – | – | – | – | – | – | – |
| Cc1cc(N)c2ccccc2[n+]1CCCCCCCCCC[n+]1c(C)cc(N)c2ccccc21 | 6.88 µM and 50 µM | 0.545 µM and 2.14 µM | 0.65 µM and 1.49 µM | 1.38 µM and 3.23 µM and 4.08 µM | 25.5 µM and 7.98 µM | 1.84 µM and 11.9 µM and 3.61 µM | – | 0.116 µM | 0.142 µM | – | 0.245 µM | 0.926 µM and 3.18 µM | 0.0679 µM and 0.367 µM | > 26.1 µM and 2.96 µM and 16.2 µM | 0.145 µM | – | – | 0.189 µM | – | 0.549 µM and 1.41 µM |
